Here are results for 15 compounds from US5998414A, “Troponyl piperazines as dopamine D4 receptor ligands” (priority 1997, dated 1999).

Assay [1] concerns the target T1, human D4 receptor (D4.2 sub-type) (Homo sapiens, UniProt P21917, DEL265-296).
T1 construct: expressed in transfected cells; host or cells: HEK 298 (human embryonic kidney) cells (so in the source); membrane homogenate
T1 sequence (P21917 with tags, fused parts or gaps DEL265-296): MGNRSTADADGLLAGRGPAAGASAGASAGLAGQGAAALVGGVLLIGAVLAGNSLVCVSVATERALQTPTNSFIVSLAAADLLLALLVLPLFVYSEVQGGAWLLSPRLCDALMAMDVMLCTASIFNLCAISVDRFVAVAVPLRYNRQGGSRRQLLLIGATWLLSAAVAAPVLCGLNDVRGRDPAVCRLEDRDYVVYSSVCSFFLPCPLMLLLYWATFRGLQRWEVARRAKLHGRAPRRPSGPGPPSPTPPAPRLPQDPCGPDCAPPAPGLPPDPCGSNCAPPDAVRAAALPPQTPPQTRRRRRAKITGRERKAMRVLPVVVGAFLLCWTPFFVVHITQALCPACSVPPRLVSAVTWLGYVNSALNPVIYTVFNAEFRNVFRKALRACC
Kind of assay: D4 receptor displacement binding assay (3H-spiperone, membrane homogenate of stably transfected HEK 298 cells). The conditions noted are these: 3H-spiperone displacement, human D4.2, HEK cells; Cheng and Prustoff transformation of IC50; read-out: D4 affinity Ki. The procedure:
(§1) The potency of the test compound to reduce ^3 H-spiperone binding directly correlated to its binding affinity for the receptor.
The cells were then centrifuged in a Sorval centrifuge for 10 min, 5000 rpm (GS3 rotor) and the pellets quickly frozen in liquid nitrogen and stored at -80° C. until used in binding assay. When used in the assay, cells were thawed on ice for 20 min and then 10 ml of incubation buffer (50 mM Tris, 1 mM EDTA, 4 mM MgCl2, 5 mM KCl, 1.5 mM CaCl2, 120 mM NaCl, pH 7.4) was added. […] Concentration of receptor protein was determined using the Pierce BCA assay.
(§2) Total Spiperone Binding Assay
(§3) The plates were vortexed and incubated at room temperature for 90 minutes. The binding reaction was stopped by filtering using a Packard Harvester. The samples were filtered under vacuum over glass fibre filter plates (Whatman GF/B) presoaked for 2 hours in 0.3% polyethylenimine (PEI) in 50 mM Tris buffer (pH 7.4). The filters were then washed 6 times with 7 ml ice cold 50 mM Tris buffer (pH 7.4). The filter plates were dried overnight and 35 μl of Microscint-O (Packard) was added. The plates were sealed and counted in the Packard Top Count (3 minutes per well).
Non-specific Binding Assay for D4
The plates were vortexed and incubated at room temperature for 90 minutes at which time the binding reaction was stopped by filtering. The filters were washed and counted using the same procedure as in the total binding assay described above to give the non-specific binding value (NSB).
(§4) Displacement Binding Assay
(§5) The incubation was started by the addition, in 96-well polypropylene plates (1 mL per well), of 100 μl (50 μg protein) membrane homogenate to a solution of 200 μl incubation buffer, 100 μl ([…].) ^3 H-spiperone (90 Ci/mmol, Amersham, diluted in borosilicate glass vial) and 100 μl of test compound that was prepared from 1 mM stock dissolved in DMSO and stored at -20° C. in polypropylene cryogenic storage vials until dilution in incubation buffer in 96-well polypropylene plates. The plates were vortexed and incubated at room temperature for 90 minutes at which time the binding reaction was stopped by filtering. The filters were washed and counted using the same procedure as in the total binding assay described above to give the displacement binding value (BD).
(§6) IC50 was determined from an inhibition response curve, logit-log plot of %B/B0 vs concentration of test compound.
(§7) Ki was calculated by the Cheng and Prustoff transformation: […]
(§8) where [L] is the concentration of ^3 H-spiperone used in the assay and KD is the dissociation constant of ^3 H-spiperone determined independently under the same binding conditions.

In assay [2] the target is human D2 receptor (short isoform) (Homo sapiens, UniProt P14416). Nature of the assay: D2 receptor displacement binding assay (3H-spiperone, membrane homogenate of stably transfected GH4 C1 cells), used for D2/D4 selectivity. The note with it: ratio D2/D4, 3H-spiperone displacement. As for the experimental part: as §1
GH4 C1 (rat pituitary) cells stably transfected with the human D2 receptor (short isoform) were grown in HAM'S F10 media in NUNC cell factories for 5 days. 100 μM ZnSO4 was added to the cells (the D2 promoter being zinc inducible). After 16 hours, fresh media was added to allow the cells to recover for 24 hours. The cells were harvested using versine and then centrifuged in a Sorval centrifuge for 10 minutes, at 5000 rpm (GS3 rotor). Pellets were quickly frozen in liquid nitrogen and stored at -80° C. until used in the binding assays. When used in the assay, cells were thawed on ice for 20 minutes. […] The receptor protein concentration was determined using the Pierce BCA assay.
as §2, §3
Non-specific Binding Assay for D2
This assay employed the same procedures as the non-specific binding assay for D4 with the exception that 2 μM (final conc.) of (-) sulpiride (Research Chemicals Inc.) was used in place of dopamine.
as §4, §5, §6, §7, §8

A further assay concerns the target T2, human D4.2 receptors (Homo sapiens, UniProt P21917, DEL265-296).
T2 construct: expressed in transfected cells; host or cells: CHO Pro 5 cells
T2 sequence (P21917 with tags, fused parts or gaps DEL265-296): T1 sequence (P21917 with tags, fused parts or gaps DEL265-296)
Nature of the assay: Functional antagonist assay: reversal of dopamine inhibition of forskolin-stimulated adenyl cyclase (cAMP) in CHO Pro 5 cells. The class given is cell-based. The conditions noted are these: dopamine and forskolin both 10 μM, read-out: % reversal of dopamine effect; for inhibition at 1 µM: 1 μM test compound; for inhibition at 10 µM: 10 μM test compound. As for the experimental part:
The D4 receptor responds to dopamine and other agonists by reducing adenyl cyclase mediated production of cyclic AMP. Particular test compounds were assayed for their ability to reverse dopamine inhibition of adenyl cyclase by the following procedure. Forskolin was used to elevate the basal adenyl cyclase activity.
CHO Pro 5 cells stably expressing human D4.2 receptors were plated in 6 well plates in DMEM (Dulbecco's Modified Eagle Medium)/F12(Nutrient Mixture F12 (Ham)) media with 10% FCS (fetal calf serum) and G418 (Geneticen Disulfate), and incubated at 37° C. in a CO2 incubator. The cells were allowed to grow to about 70% confluence before use in the assay.
The culture media of each well was removed, and the wells were washed once with serum free media (SFM) (DMEM/F12) media. Then 2 mL of fresh SFM+IBMX media (SFM with 0.5 mM IBMX, 3-isobutyl-1-methylxanthine, 0.1% ascorbic acid and 10 μM pargyline) was added to each well and then incubated at 37° C. for 10 minutes in a CO2 incubator. […] Basal adenyl cyclase activity was determined from wells with only SFM+IBMX media added.
The cells were then incubated at 37° C. for 30 minutes in a CO2 incubator. Following incubation the media was removed from each well and then washed once with 1 mL of PBS (phosphate buffered saline). […] The cells from each well were then scraped and transferred into individual Eppendorf tubes. The tubes were centrifuged for 5 min at 4° C., and the supernatants were transferred to new Eppendorf tubes.
Total inhibition (I0) of forskolin-stimulated adenyl cyclase activity by dopamine was determined as the difference in concentration of cAMP in the forskolin-treated cells (Cf) and dopamine-forskolin treated cells (Cd).
Net inhibition (I) of forskolin-stimulated adenyl cyclase activity by dopamine in the presence of an antagonist was determined as the difference in concentration of cAMP in the forskolin-treated cells (Cf) and test compound, dopamine and forskolin treated cells (C).
The ability of the test compounds to reverse the dopamine inhibition (% reversal, % R) was determined by the formula: […]

The target of another assay is D4 receptor. The note with it: background, marketed products; cited from earlier work.
In the next assay the test system is D2 receptor. The note with it: background, marketed products; cited from earlier work.

SMILES strings stand for the structures.

Sequence of human D2 receptor (short isoform) (P14416 with tags, fused parts or gaps DEL242-270): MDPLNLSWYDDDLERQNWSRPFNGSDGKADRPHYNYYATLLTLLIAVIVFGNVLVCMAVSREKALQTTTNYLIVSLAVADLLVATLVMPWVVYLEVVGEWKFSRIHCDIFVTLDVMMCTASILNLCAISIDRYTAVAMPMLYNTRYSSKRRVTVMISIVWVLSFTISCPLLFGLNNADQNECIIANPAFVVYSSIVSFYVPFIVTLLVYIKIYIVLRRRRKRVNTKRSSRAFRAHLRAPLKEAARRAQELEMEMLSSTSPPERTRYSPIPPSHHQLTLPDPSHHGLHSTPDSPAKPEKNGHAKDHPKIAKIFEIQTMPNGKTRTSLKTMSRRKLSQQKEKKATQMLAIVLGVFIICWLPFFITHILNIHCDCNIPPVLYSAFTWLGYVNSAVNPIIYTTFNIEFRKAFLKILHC

For `O=c1cccccc1N1CCN(Cc2ccc3c(c2)OCO3)CC1` [2-(4-Piperonyl-1-piperazinyl)-2,4,6-cycloheptatriene-1-one], the Ki in assay [1] was determined as 7.15 nM. Besides, the D2/D4 selectivity in assay [2] was determined as 154. Further, at human D4.2 receptors, the inhibition at 1 µM was 32% and the inhibition at 10 µM amounted to 65%.
As for `N#Cc1ccc(CN2CCN(c3cccccc3=O)CC2)cc1` [2-[4-(4-cyanobenzyl)-1-piperazinyl]-2,4,6-cycloheptatriene-1-one], in assay [1], the Ki came to 29.5 nM. Further, the D2/D4 selectivity in assay [2] worked out at 169.
Regarding `CCCCCCN1CCN(c2cccccc2=O)CC1` [2-(4-hexyl-1-piperazinyl)-2,4,6-cycloheptatriene-1-one], the Ki in assay [1] came to 33.3 nM. In addition, the D2/D4 selectivity in assay [2] stood at 23. Moreover, at human D4.2 receptors, the inhibition at 1 µM stood at 45% and the inhibition at 10 µM came out at 50%.
On to `Cc1ccc(CN2CCN(c3cccccc3=O)CC2)cc1` [2-[4-(4-methylbenzyl)-1-piperazinyl]-2,4,6-cycloheptatriene-1-one], for which the inhibition constant (Ki) in assay [1] was determined as 1.46 nM. Also, the D2/D4 selectivity in assay [2] turned out to be 443.
As to `O=c1cccccc1N1CCN(Cc2ccc3ccccc3c2)CC1`, in assay [1], the Ki came to 2.24 nM. For the same compound, the D2/D4 selectivity in assay [2] was found to be 321.
Turning to `O=c1cccccc1N1CCN(Cc2ccc(OC(F)(F)F)cc2)CC1` [2-[4-(4-trifluoromethoxybenzyl)-1-piperazinyl]-2,4,6-cycloheptatriene-1-one], in assay [1], the Ki turned out to be 2.18 nM. Moreover, the D2/D4 selectivity in assay [2] came out at 367.
On the same counts, the results for `O=c1cccccc1N1CCN(Cc2cccc(Br)c2)CC1` [2-[4-(3-bromobenzyl)-1-piperazinyl]-2,4,6-cycloheptatriene-1-one] are 9.58 nM and 53.
On the same counts, the results for `O=c1c(Br)ccccc1N1CCN(Cc2ccc3c(c2)OCO3)CC1` [7-bromo-2-(4-piperonyl-1-piperazinyl)-2,4,6-cycloheptatriene-1-one] are 0.226 nM and 104.
For the compound `CN1CCN(C2=Nc3cc(Cl)ccc3Oc3ccccc32)CC1` [isoloxapine], the Ki on D4 receptor was ~20 nM. In addition, the “preference for binding the D4 receptor relative to the D2 receptor” value in the assay on D2 receptor is “about 10 fold”.
Turning to `COc1cccc(CN2CCN(c3cccccc3=O)CC2)c1` [2-[4-(3-Methoxybenzyl)-1-piperazinyl]-2,4,6-cycloheptatriene-1-one], in assay [1], the Ki amounted to 19.2 nM. Moreover, in assay [2], the D2/D4 selectivity was determined as 137.
On the same counts, the results for `O=c1cccccc1N1CCN(Cc2ccc(Br)cc2)CC1` [2-[4-(4-bromobenzyl)-1-piperazinyl]-2,4,6-cycloheptatriene-1-one] are 0.82 nM and 935.
On the same counts, the results for `O=c1cccccc1N1CCN(Cc2ccc(C(F)(F)F)cc2)CC1` [2-[4-(4-trifluoromethylbenzyl)-1-piperazinyl]-2,4,6-cycloheptatriene-1-one] are 4.22 nM and 598.
On the same counts, the results for `O=c1cccccc1N1CCN(Cc2ccc([N+](=O)[O-])cc2)CC1` [2-[4-(4-nitrobenzyl)-1-piperazinyl]-2,4,6-cycloheptatriene-1-one] are 6.67 nM and 1014.
In the case of `O=c1cccccc1N1CCN(Cc2cccc(C(F)(F)F)c2)CC1` [2-[4-(3-trifluoromethylbenzyl)-1-piperazinyl]-2,4,6-cycloheptatriene-1-one], the Ki in assay [1] turned out to be 21.5 nM. Besides, the D2/D4 selectivity in assay [2] is listed as 28.
With `O=c1c(-c2cccs2)ccccc1N1CCN(Cc2ccc3c(c2)OCO3)CC1` [2-(4-Piperonyl-1-piperazinyl)7-thien2-yl-2,4,6-cycloheptatriene-1-one], in assay [1], the Ki amounted to 11.9 nM. The D2/D4 selectivity in assay [2] is recorded as 34.
